Measured values from PubChem BioAssay (NCI).
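In this assay, cells in 96-well plates receive the compound at five concentrations for 48 hours. Endpoints are linearly interpolated between the surrounding concentrations. GI50 marks 50% less growth. The concentration for full growth arrest is given as TGI.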

Key:
Test in all cases: inhibition of tumour cell growth, NCI panel, 48 h
786-0 renal = tested on: 786-0 renal
A498 renal = tested on: A498 renal
A549 NSCLC = tested on: A549 NSCLC
ACHN renal = tested on: ACHN renal
BT-549 breast = tested on: BT-549 breast
CAKI-1 renal = tested on: CAKI-1 renal
CCRF-CEM leukemia = tested on: CCRF-CEM leukemia
COLO 205 colon = tested on: COLO 205 colon
DU-145 prostate = tested on: DU-145 prostate
EKVX NSCLC = tested on: EKVX NSCLC
HCC-2998 colon = tested on: HCC-2998 colon
HCT-116 colon = tested on: HCT-116 colon
HCT-15 colon = tested on: HCT-15 colon
HL-60(TB) leukemia = tested on: HL-60(TB) leukemia
HOP-62 NSCLC = tested on: HOP-62 NSCLC
HOP-92 NSCLC = tested on: HOP-92 NSCLC
HS 578T breast = tested on: HS 578T breast
HT29 colon = tested on: HT29 colon
IGROV1 ovarian = tested on: IGROV1 ovarian
K-562 leukemia = tested on: K-562 leukemia
KM12 colon = tested on: KM12 colon
LOX IMVI melanoma = tested on: LOX IMVI melanoma
M14 melanoma = tested on: M14 melanoma
MALME-3M melanoma = tested on: MALME-3M melanoma
MCF7 breast = tested on: MCF7 breast
MDA-MB-231 breast = tested on: MDA-MB-231 breast
MDA-MB-435 = tested on: MDA-MB-435
MOLT-4 leukemia = tested on: MOLT-4 leukemia
NCI-H226 lung = tested on: NCI-H226 lung
NCI-H23 lung = tested on: NCI-H23 lung
NCI-H522 lung = tested on: NCI-H522 lung
NCI/ADR-RES ovarian = tested on: NCI/ADR-RES ovarian
OVCAR-3 ovarian = tested on: OVCAR-3 ovarian
OVCAR-4 ovarian = tested on: OVCAR-4 ovarian
OVCAR-5 ovarian = tested on: OVCAR-5 ovarian
OVCAR-8 ovarian = tested on: OVCAR-8 ovarian
PC-3 prostate = tested on: PC-3 prostate
RPMI-8226 leukemia = tested on: RPMI-8226 leukemia
RXF 393 renal = tested on: RXF 393 renal
SF-268 CNS = tested on: SF-268 CNS
SF-295 CNS = tested on: SF-295 CNS
SF-539 CNS = tested on: SF-539 CNS
SK-MEL-2 melanoma = tested on: SK-MEL-2 melanoma
SK-MEL-28 melanoma = tested on: SK-MEL-28 melanoma
SK-MEL-5 melanoma = tested on: SK-MEL-5 melanoma
SK-OV-3 ovarian = tested on: SK-OV-3 ovarian
SN12C renal = tested on: SN12C renal
SNB-19 CNS = tested on: SNB-19 CNS
SNB-75 CNS = tested on: SNB-75 CNS
SR leukemia = tested on: SR leukemia
SW-620 colon = tested on: SW-620 colon
T-47D breast = tested on: T-47D breast
TK-10 renal = tested on: TK-10 renal
U251 CNS = tested on: U251 CNS
UACC-257 melanoma = tested on: UACC-257 melanoma
UACC-62 melanoma = tested on: UACC-62 melanoma
UO-31 renal = tested on: UO-31 renal

COc1cccc2c1C(=O)c1c(O)c3c(c(O)c1C2=O)C[C@@](O)(C(C)=O)C[C@@H]3O[C@H]1C[C@H](N)[C@H](O)[C@H](C)O1
GI50 (786-0 renal): 68.5 nM | TGI (786-0 renal): 517 nM | TGI (A498 renal): 896 nM | GI50 (A549 NSCLC): 42.7 nM | TGI (A549 NSCLC): 201 nM | GI50 (ACHN renal): 45.2 nM | TGI (ACHN renal): 395 nM | GI50 (BT-549 breast): 153 nM | TGI (BT-549 breast): 924 nM | GI50 (CAKI-1 renal): 229 nM | TGI (CAKI-1 renal): 1530 nM | GI50 (CCRF-CEM leukemia): 22.8 nM | TGI (CCRF-CEM leukemia): 293 nM | GI50 (COLO 205 colon): 52.4 nM | TGI (COLO 205 colon): 655 nM | GI50 (DU-145 prostate): 68.7 nM | TGI (DU-145 prostate): 340 nM | GI50 (EKVX NSCLC): 360 nM | TGI (EKVX NSCLC): 2630 nM | GI50 (HCC-2998 colon): 99.2 nM | TGI (HCC-2998 colon): 475 nM | GI50 (HCT-116 colon): 28.6 nM | TGI (HCT-116 colon): 216 nM | TGI (HCT-15 colon): 5690 nM | GI50 (HL-60(TB) leukemia): 31.2 nM | TGI (HL-60(TB) leukemia): 358 nM | GI50 (HOP-62 NSCLC): 53 nM | TGI (HOP-62 NSCLC): 263 nM | GI50 (HOP-92 NSCLC): 29.6 nM | TGI (HOP-92 NSCLC): 276 nM | GI50 (HS 578T breast): 120 nM | TGI (HS 578T breast): 1820 nM | GI50 (HT29 colon): 50.7 nM | TGI (HT29 colon): 337 nM | GI50 (IGROV1 ovarian): 60.9 nM | TGI (IGROV1 ovarian): 2580 nM | GI50 (K-562 leukemia): 51.3 nM | TGI (K-562 leukemia): 868 nM | GI50 (KM12 colon): 96 nM | TGI (KM12 colon): 497 nM | TGI (LOX IMVI melanoma): 107 nM | GI50 (M14 melanoma): 118 nM | TGI (M14 melanoma): 653 nM | TGI (MALME-3M melanoma): 235 nM | GI50 (MCF7 breast): 19.5 nM | TGI (MCF7 breast): 2040 nM | GI50 (MDA-MB-231 breast): 201 nM | TGI (MDA-MB-231 breast): 2750 nM | GI50 (MDA-MB-435): 137 nM | TGI (MDA-MB-435): 672 nM | GI50 (MOLT-4 leukemia): 16.5 nM | TGI (MOLT-4 leukemia): 117 nM | GI50 (NCI-H226 lung): 53.2 nM | TGI (NCI-H226 lung): 119 nM | GI50 (NCI-H23 lung): 59.4 nM | TGI (NCI-H23 lung): 262 nM | GI50 (NCI-H522 lung): 36.2 nM | TGI (NCI-H522 lung): 163 nM | GI50 (NCI/ADR-RES ovarian): 1230 nM | TGI (NCI/ADR-RES ovarian): 9040 nM | GI50 (OVCAR-3 ovarian): 125 nM | TGI (OVCAR-3 ovarian): 777 nM | GI50 (OVCAR-4 ovarian): 128 nM | TGI (OVCAR-4 ovarian): 1060 nM | GI50 (OVCAR-5 ovarian): 155 nM | TGI (OVCAR-5 ovarian): 2260 nM | GI50 (OVCAR-8 ovarian): 41.6 nM | TGI (OVCAR-8 ovarian): 1090 nM | GI50 (PC-3 prostate): 108 nM | TGI (PC-3 prostate): 975 nM | GI50 (RPMI-8226 leukemia): 90.2 nM | TGI (RPMI-8226 leukemia): 327 nM | GI50 (RXF 393 renal): 92.4 nM | TGI (RXF 393 renal): 341 nM | GI50 (SF-268 CNS): 54.8 nM | TGI (SF-268 CNS): 585 nM | GI50 (SF-295 CNS): 42.8 nM | TGI (SF-295 CNS): 245 nM | TGI (SF-539 CNS): 546 nM | GI50 (SK-MEL-2 melanoma): 158 nM | TGI (SK-MEL-2 melanoma): 506 nM | GI50 (SK-MEL-28 melanoma): 132 nM | TGI (SK-MEL-28 melanoma): 680 nM | GI50 (SK-MEL-5 melanoma): 48.8 nM | TGI (SK-MEL-5 melanoma): 143 nM | GI50 (SK-OV-3 ovarian): 88.7 nM | TGI (SK-OV-3 ovarian): 1320 nM | GI50 (SN12C renal): 41.6 nM | TGI (SN12C renal): 451 nM | GI50 (SNB-19 CNS): 36.1 nM | TGI (SNB-19 CNS): 1350 nM | GI50 (SNB-75 CNS): 39.1 nM | TGI (SNB-75 CNS): 359 nM | GI50 (SR leukemia): 7.24 nM | TGI (SR leukemia): 188 nM | GI50 (SW-620 colon): 35.5 nM | TGI (SW-620 colon): 855 nM | GI50 (T-47D breast): 40.8 nM | TGI (T-47D breast): 312 nM | GI50 (TK-10 renal): 93.6 nM | TGI (TK-10 renal): 793 nM | GI50 (U251 CNS): 38.1 nM | TGI (U251 CNS): 217 nM | TGI (UACC-257 melanoma): 426 nM | GI50 (UACC-62 melanoma): 59.8 nM | TGI (UACC-62 melanoma): 205 nM | GI50 (UO-31 renal): 175 nM | TGI (UO-31 renal): 1260 nM
